Data published in ChEMBL document CHEMBL3865818, “4,5-Diaryl-3H-1,2-dithiole-3-thiones and related compounds as combretastatin A-4/oltipraz hybrids: Synthesis, molecular modelling and evaluation as antiproliferative agents and inhibitors of tubulin” (Eur J Med Chem, 2016).
Each block holds one compound with its values, some of them ahead of it. Active and inactive are the calls of the source. The calls are words filed in the database; no cut-off is given here.

What was measured:
[1] = Antiproliferative activity against human SGC7901 cells measured after 72 hrs by MTT assay; assay type: functional, cell-based; settings: SGC-7901, 72 h
[2] = Antiproliferative activity against human KB cells measured after 72 hrs by MTT assay; assay type: functional, cell-based
[3] = Antiproliferative activity against human HT1080 cells measured after 72 hrs by MTT assay; assay type: functional, cell-based; settings: HT-1080, 72 h
[4] = Inhibition of porcine brain tubulin polymerization measured after 60 mins by fluorescence analysis; set-up: species or system Sus scrofa
[5] = Cell cycle arrest in human KB cells assessed as accumulation at G2/M-phase at 0.2 uM measured up to 60 hrs by propidium iodide staining-based flow cytometry; assay type: functional
[6] = Cell cycle arrest in human KB cells assessed as accumulation at G2/M-phase up to 0.2 uM measured after 24 hrs by propidium iodide staining-based flow cytometry; assay type: functional
[7] = Antitumor activity against mouse SVR cells implanted in athymic nude mouse assessed as tumor growth inhibition at 250 mg/kg, po qd for 10 days measured on day 4 relative to control; settings: read-out: TGI

SMILES: COc1ccc(-c2c(-c3cc(OC)c(OC)c(OC)c3)ss/c2=N/O)cc1
IC50 [1]: > 100 µM
IC50 [2]: > 100 µM
IC50 [3]: > 100 µM

SMILES: COc1ccc(-c2c(-c3cc(OC)c(OC)c(OC)c3)ssc2=S)cc1
IC50 [1]: 2.35 µM
IC50 [2]: 1.14 µM
IC50 [3]: 2.27 µM

SMILES: COc1ccc(-c2ssc(=O)c2-c2cc(OC)c(OC)c(OC)c2)cc1[N+](=O)[O-]
IC50 [1]: 0.44 µM
IC50 [2]: 22.3 µM
IC50 [3]: 4.22 µM

IC50 [4]: 12.8 µM
SMILES: COc1ccc(-c2ss/c(=N/O)c2-c2cc(OC)c(OC)c(OC)c2)cc1N
IC50 [1]: 4.3 µM
IC50 [2]: 0.099 µM
IC50 [3]: 9.36 µM
Activity [5]: Active
Activity [6]: Active

SMILES: COc1ccc(-c2ss/c(=N/O)c2-c2cc(OC)c(OC)c(OC)c2)cc1
IC50 [1]: 17.4 µM
IC50 [2]: 13.7 µM
IC50 [3]: 6.66 µM

SMILES: Cc1c(-c2cnccn2)ssc1=S [OLTIPRAZ]
inhibition in vivo at 250 mg/kg [7]: 81%

SMILES: CO/N=c1/ssc(-c2cc(OC)c(OC)c(OC)c2)c1-c1ccc(OC)c(N)c1
IC50 [1]: 1.96 µM
IC50 [2]: 0.517 µM
IC50 [3]: 0.915 µM

SMILES: CO/N=c1/ssc(-c2ccc(OC)c(O)c2)c1-c1cc(OC)c(OC)c(OC)c1
IC50 [1]: 10 µM
IC50 [2]: 14.5 µM
IC50 [3]: 4.6 µM

SMILES: CO/N=c1/ssc(-c2cc(OC)c(OC)c(OC)c2)c1-c1ccc(OC)c([N+](=O)[O-])c1
IC50 [1]: > 100 µM
IC50 [2]: > 100 µM
IC50 [3]: > 100 µM

SMILES: COc1ccc(-c2c(-c3cc(OC)c(OC)c(OC)c3)ss/c2=N/O)cc1N
IC50 [1]: 2.91 µM
IC50 [2]: 2.91 µM
IC50 [3]: 2.91 µM

SMILES: COc1ccc(-c2ssc(=S)c2-c2cc(OC)c(OC)c(OC)c2)cc1O
IC50 [1]: 0.271 µM
IC50 [2]: 0.435 µM
IC50 [3]: 0.231 µM

SMILES: COc1ccc(-c2ssc(=O)c2-c2cc(OC)c(OC)c(OC)c2)cc1
IC50 [1]: 0.134 µM
IC50 [2]: 0.324 µM
IC50 [3]: 0.464 µM

SMILES: COc1ccc(-c2c(-c3cc(OC)c(OC)c(OC)c3)ssc2=S)cc1[N+](=O)[O-]
IC50 [1]: 44.7 µM
IC50 [2]: 38.2 µM
IC50 [3]: 3.55 µM

SMILES: COc1ccc(/C=C\c2cc(OC)c(OC)c(OC)c2)cc1O [COMBRETASTATIN A4]
IC50 [1]: 0.026 µM
IC50 [2]: 0.007 µM
IC50 [3]: 0.01 µM
IC50 [4]: 0.92 µM

SMILES: COc1ccc(-c2ssc(=S)c2-c2cc(OC)c(OC)c(OC)c2)cc1[N+](=O)[O-]
IC50 [1]: 13.6 µM
IC50 [2]: > 100 µM
IC50 [3]: 9.14 µM

SMILES: COc1ccc(-c2c(-c3cc(OC)c(OC)c(OC)c3)ssc2=O)cc1
IC50 [1]: > 100 µM
IC50 [2]: > 100 µM
IC50 [3]: > 100 µM

SMILES: COc1ccc(-c2ssc(=S)c2-c2cc(OC)c(OC)c(OC)c2)cc1
IC50 [1]: 21.1 µM
IC50 [2]: 4.91 µM
IC50 [3]: 18.6 µM

IC50 [4]: 9.71 µM
SMILES: COc1ccc(-c2ssc(=O)c2-c2cc(OC)c(OC)c(OC)c2)cc1O
IC50 [1]: 3.11 µM
IC50 [2]: 0.46 µM
IC50 [3]: 1.91 µM
Activity [5]: Active
Activity [6]: Active

SMILES: COc1ccc(-c2c(-c3cc(OC)c(OC)c(OC)c3)ss/c2=N/O)cc1[N+](=O)[O-]
IC50 [1]: 6.56 µM
IC50 [2]: 5.26 µM
IC50 [3]: 3.03 µM

SMILES: COc1ccc(-c2ss/c(=N/O)c2-c2cc(OC)c(OC)c(OC)c2)cc1O
IC50 [1]: 0.2 µM
IC50 [2]: 0.85 µM
IC50 [3]: 0.73 µM

SMILES: COc1ccc(-c2ssc(=S)c2-c2cc(OC)c(OC)c(OC)c2)cc1N
IC50 [1]: 0.444 µM
IC50 [2]: 0.327 µM
IC50 [3]: 0.834 µM

SMILES: COc1ccc(-c2c(-c3cc(OC)c(OC)c(OC)c3)ssc2=S)cc1N
IC50 [1]: 2.62 µM
IC50 [2]: 2.17 µM
IC50 [3]: 3 µM

SMILES: CO/N=c1/ssc(-c2ccc(OC)c(N)c2)c1-c1cc(OC)c(OC)c(OC)c1
IC50 [1]: > 100 µM
IC50 [2]: 4.33 µM
IC50 [3]: 4.23 µM

SMILES: COc1ccc(-c2c(-c3cc(OC)c(OC)c(OC)c3)ssc2=O)cc1[N+](=O)[O-]
IC50 [1]: > 100 µM
IC50 [2]: > 100 µM
IC50 [3]: > 100 µM

SMILES: COc1ccc(-c2c(-c3cc(OC)c(OC)c(OC)c3)ssc2=O)cc1N
IC50 [1]: > 100 µM
IC50 [2]: > 100 µM
IC50 [3]: > 100 µM
